Measured values: patent publication US7022716B2, “Cyclic amine phenyl beta-3 adrenergic receptor agonists” (Wyeth, priority 2000, dated 2006)

Key:
[1] = system: β3 Knockout(KO) Mice; experiment: Thermogenesis (Oxymax indirect calorimetry) in β3 knockout mice; settings: percent increase in thermogenesis over baseline; female FVB β3 knockout mice; i.p. 0.1-20 mg/kg or oral 1.0-30 mg/kg
[2] = system: β3 Transgenic(Tg) Mice; experiment: Thermogenesis (Oxymax indirect calorimetry) in β3 transgenic mice; settings: percent increase in thermogenesis over baseline; female FVB β3 transgenic mice; i.p. 0.1-20 mg/kg or oral 1.0-30 mg/kg
[3] = biological target: T1, human β3 adrenergic receptor (Homo sapiens, UniProt P13945); experiment: cAMP (SPA) response in CHO cells transfected with human β3 adrenergic receptor; assay type: cell-based; design: key: fraction of maximal isoproterenol (10^-5 M) response; settings: maximal response relative to maximal response of isoproterenol at 10^-5 M
T1 construct: Full length β3 AR clones (402 amino acids) containing the last 6 amino acids of hβ3-AR are prepared; expressed in transfected cells; host or cells: CHO (Chinese hamster ovary) cells
T1 sequence (P13945 whole entry): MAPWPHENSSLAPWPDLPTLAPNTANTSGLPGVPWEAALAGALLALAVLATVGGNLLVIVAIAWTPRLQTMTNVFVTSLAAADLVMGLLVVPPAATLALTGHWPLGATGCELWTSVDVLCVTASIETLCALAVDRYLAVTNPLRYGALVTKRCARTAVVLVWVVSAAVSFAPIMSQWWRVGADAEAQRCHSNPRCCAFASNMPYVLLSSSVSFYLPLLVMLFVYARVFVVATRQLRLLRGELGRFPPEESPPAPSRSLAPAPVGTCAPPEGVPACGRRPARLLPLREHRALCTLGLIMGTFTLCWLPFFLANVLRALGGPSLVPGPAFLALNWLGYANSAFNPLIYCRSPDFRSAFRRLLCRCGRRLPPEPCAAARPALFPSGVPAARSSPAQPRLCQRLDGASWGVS
How it was run: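 Reactions were stopped with 0.2N HCl and neutralised, and cAMP was measured by SPA. Activity is expressed as percent of the maximal 10^−5 M isoproterenol response.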

Row | SMILES | Thermogenesis (KO mice) [1] [%] | Thermogenesis (Tg mice) [2] [%] | melting point | IA(β3) [3]
1 | CS(=O)(=O)Nc1cc(C(O)CNC2CCN(c3ccc(CC4SC(=O)NC4=O)cc3)CC2)ccc1O [Example 84, N-[5-((2R)-2-{1-[4-(2,4-Dioxo-thiazolidin-5-ylmethyl}-phenyl]-piperidin-4-ylamino}-1-hydroxy-ethyl)-2-hydroxy-phenyl]-methanesulfonamide] | −2 ± 4 | 30 ± 4 | > 180 °C (dec.) | 
2 | CCOC(=O)C(=Cc1ccc(N2CCC(NC[C@H](O)c3ccc(O)c(NS(C)(=O)=O)c3)CC2)cc1)C(=O)O [Example 189, 2-(4-{4-[(2R)-2-Hydroxy-2-(4-hydroxy-3-methanesulfonylamino-phenyl)-ethylamino]-piperidin-1-yl}-benzylidene)-malonic acid monoethyl ester] | 6 ± 3 | 33 ± 7 | > 170 °C (dec.) | 1.3
3 | CCOC(=O)c1ccc(N2CCC(NC[C@H](O)c3ccc(O)c(NS(C)(=O)=O)c3)CC2)cc1 [Example 180, {4-[(2R)-2-Hydroxy-2-(4-hydroxy-3-methanesulfonylamino-phenyl)-ethylamino]-piperidin-1-yl}-benzoic acid ethyl ester] | 9 ± 5 | 42 ± 4 |  | 1
4 | CCOC(=O)[C@H](CC(C)C)NC(=O)c1ccc(N2CCC(NC[C@H](O)c3ccc(O)c(NS(C)(=O)=O)c3)CC2)cc1 [Example 198, (2S)-2-(4-{4-[(2R)-2-Hydroxy-2-(4-hydroxy-3-methanesulfonylamino-phenyl)-ethylamino]-piperidin-1-yl}-benzoylamino)-4-methyl-pentanoic acid ethyl ester:] |  |  | > 85 °C (dec.) | 0.97
5 | O=C1NC(=O)C(Cc2ccc(N3CCC(NC[C@H](O)COc4ccc(O)c(NS(=O)(=O)c5ccccc5)c4)CC3)cc2)S1 (stereo partly drawn) [Example 93, N-[5-((2S)-3-{1-[4-(2,4-Dioxo-thiazolidin-5-ylmethyl)-phenyl]-piperidin-4-ylamino}-2-hydroxy-propoxy)-2-hydroxy-phenyl]-benzenesulfonamide] |  |  | > 120 °C (dec.) | 1
6 | COC(=O)C1(NC(=O)c2ccc(N3CCC(NC[C@H](O)c4ccc(O)c(NS(C)(=O)=O)c4)CC3)cc2)CC1 [Example 206] |  |  | > 110 °C (dec.) | 0.94
7 | CCOC(=O)c1ccc(N2CCC(NC[C@H](O)COc3cccc4[nH]c(=O)[nH]c34)CC2)cc1 [Example 179] |  |  | > 170 °C (dec.) | 0.85
8 | CC(C)C[C@@H](CO)NC(=O)c1ccc(N2CCC(NC[C@H](O)c3ccc(O)c(NS(C)(=O)=O)c3)CC2)cc1 [Example 211, 4-{4-[((2R)-2-Hydroxy-2-{4-hydroxy-3-[(methylsulfonyl)amino]phenyl}ethyl)amino]-1-piperidinyl}-N-[(1S)-1-(hydroxymethyl)-3-methylbutyl]benzamide] |  |  | 120 to 122 °C | 1
9 | O=C1NC(=O)C(=Cc2ccc(N3CCC(NC[C@H](O)COc4cccc5[nH]c(=O)[nH]c45)CC3)cc2)S1 [Example 75, 5-(4-{4-[(2S)-2-Hydroxy-3-(2-oxo-2,3-dihydro-1H-benzoimidazol-4-yloxy)-propylamino]-piperidin-1-yl}-benzylidene)-thiazolidine-2,4-dione] |  |  | > 240 °C (dec.) | 1.08
10 | O=C(Nc1ccc(N2CCC(NC[C@H](O)COc3cccc4[nH]c5ccccc5c34)CC2)cc1)c1ccc2c(c1)OCO2 [Example 391, N-[4-(4-{[(2S)-3-(9H-Carbazol-4-yloxy)-2-hydroxypropyl]amino}-1-piperidinyl)phenyl]-1,3-benzodioxole-5-carboxamide] |  |  | 217 to 223 °C | 0.81
11 | O=C1NC(=O)C(Cc2ccc(N3CCC(NC[C@H](O)c4cccnc4)CC3)cc2)S1 (stereo partly drawn) [Example 136, 5-{4-[4-((2R)-2-Hydroxy-2-pyridin-3-yl-ethylamino)-piperidin-1-yl]-benzyl}-thiazolidine-2,4-dione] |  |  | 87 °C (dec.) | 0.9
12 | CS(=O)(=O)Nc1cc(C(O)CNC2CCN(c3ccc(CC4NC(=O)NC4=O)cc3)CC2)ccc1O (stereo not shown) [Example 87, N-[5-(2-{1-[4-(2,5-Dioxo-imidazolidin-4-ylmethyl)-phenyl]-piperidin-4-ylamino}-1-hydroxy-ethyl)-2-hydroxy-phenyl]-methanesulfonamide] |  |  | > 105 °C (dec.) | 1
13 | O=C1NC(=O)C(Cc2ccc(N3CCC(NCC(O)COc4ccc(OCc5ccccc5)cc4)CC3)cc2)S1 [Example 74, 5-(4-{4-[(2S)-3-(4-Benzyloxy-phenoxy)-2-hydroxy-propylamino]-piperidin-1-}-benzyl)-thiazolidine-2,4-dione] |  |  | > 70 °C (dec.) | 0.23
14 | O=C1CCc2c(OC[C@@H](O)CNC3CCN(c4ccc(CC5SC(=O)NC5=O)cc4)CC3)ccc(O)c2N1 (stereo partly drawn) [Example 91, 5-(4-{4-[(2S)-2-Hydroxy-3-(8-hydroxy-2-oxo-1,2,3,4-tetrahydro-quinolin-5-yloxy)-propylamino]-piperidin-1-yl}-benzyl)-thiazolidine-2,4-dione] |  |  | > 140 °C (dec.) | 1.2
15 | CS(=O)(=O)Nc1cc([C@@H](O)CNC2CCN(c3ccc(C(=O)N[C@H]4CCCCNC4=O)cc3)CC2)ccc1O [Example 212] |  |  | 135 to 137 °C | 1.1
16 | CS(=O)(=O)Nc1cc(C(O)CNC2CCN(c3ccc(C=C4SC(=O)NC4=O)cc3Br)CC2)ccc1O (stereo not shown) [Example 70, N-[5-(2-{1-[2-Bromo-4-(2,4-dioxo-thiazolidin-5-ylidenemethyl)-phenyl]-piperidin-4-ylamino}-1-hydroxy-ethyl)-2-hydroxy-phenyl]-methanesulfonamide] |  |  | > 200 °C | 1.2
17 | O=C1NC(=O)C(Cc2ccc(N3CCC(NC[C@H](O)c4cccc(Cl)c4)CC3)cc2)S1 (stereo partly drawn) [Example 79, 5-(4-{4-[2-(3-Chloro-phenyl)-(2R)-2-hydroxyethylamino}-piperidin-1-yl}-benzyl)-thiazolidine-2,4-dione] |  |  | > 195 °C | 0.56
18 | CS(=O)(=O)Nc1cc([C@@H](O)CNC2CCN(c3ccc(C(=O)O)cc3)CC2)ccc1O [Example 186, 4-{4-[(2R)-2-Hydroxy-2-(4-hydroxy-3-methanesulfonylamino-phenyl)-ethylamino]-piperidin-1-yl}-benzoic acid] | 16 ± 7 | 77 ± 12 | > 85 °C (dec.) | 1.1
19 | CS(=O)(=O)Nc1cc([C@@H](O)CNC2CCN(c3ccc(/C=C/C(=O)O)cc3)CC2)ccc1O [Example 210, (2E)-3-(4-{4-[(2R)-2-Hydroxy-2-(4-hydroxy-3-methanesulfonylamino-phenyl)-ethylamino]-piperidin-1-yl}-phenyl)-acrylic acid] |  |  | 220 °C | 1.36
20 | CS(=O)(=O)Nc1cc([C@@H](O)CNC2CCN(c3ccc(-c4nnnn4CC(=O)O)cc3)CC2)ccc1O [Example 99, [5-(4-{4-[((2R)-2-Hydroxy-2-{4-hydroxy-3-[(methylsulfonyl)amino]phenyl}ethyl)amino]-1-piperidinyl}phenyl)-1H-tetraazol-1-yl]acetic acid] |  |  | > 210 °C (dec.) | 0.97
21 | O=C1NC(=O)C(Cc2ccc(N3CCC(NC[C@H](O)COc4ccc(O)cc4)CC3)cc2)S1 (stereo partly drawn) [Example 81, 5-(4-{4-[(2S)-2-Hydroxy-3-(4-hydroxy-phenoxy)-propylamino]-piperidin-1-yl}-benzyl)-thiazolidine-2,4-dione] |  |  | > 160 °C (dec.) | 0.89
22 | CCCCN(CC(=O)OCC)C(=O)c1ccc(N2CCC(NC[C@H](O)c3ccc(O)c(NS(C)(=O)=O)c3)CC2)cc1 [Example 207, [Butyl-(4-{4-[(2R)-2-hydroxy-2-(4-hydroxy-3-methanesulfonylamino-phenyl)-ethylamino]-piperidin-1-yl}-benzoyl)-amino]-acetic acid ethyl ester] |  |  | > 60 °C (dec.) | 1
23 | CS(=O)(=O)Nc1cc([C@@H](O)CNC2CCN(c3ccc(C(=O)NOCc4ccccc4)cc3)CC2)ccc1O [Example 191, N-Benzyloxy-4-{4-[(2R)-2-hydroxy-2-(4-hydroxy-3-methanesulfonylamino-phenyl)-ethylamino]-piperidin-1-yl}-benzamide] |  |  | > 70 °C (dec.) | 1
